According to patent publication US10081635B2, “Substituted N-(pyrrolidine-3-yl)-7H-pyrrolo[2,3-D]pyrimidine-4-amine as janus kinase inhibitor” (YANG JI CHEMICAL CO., LTD., priority 2014, dated 2018):
Structures can show the parent of a compound that is named as a salt. Where two headings read alike, the source gives them in different places.

Columns and labels:
Assay type in all cases: biochemical
Human JAK1 [1] = target: T1, Human JAK1 (Homo sapiens (Human), UniProt P23458); test: In vitro kinase inhibition test, JAK1 (33P-ATP filter scintillation); conditions: compound at 1 uM; read-out: JAK1 kinase-phosphorylation inhibitory level (% inhibition)
T1 sequence (P23458 whole entry): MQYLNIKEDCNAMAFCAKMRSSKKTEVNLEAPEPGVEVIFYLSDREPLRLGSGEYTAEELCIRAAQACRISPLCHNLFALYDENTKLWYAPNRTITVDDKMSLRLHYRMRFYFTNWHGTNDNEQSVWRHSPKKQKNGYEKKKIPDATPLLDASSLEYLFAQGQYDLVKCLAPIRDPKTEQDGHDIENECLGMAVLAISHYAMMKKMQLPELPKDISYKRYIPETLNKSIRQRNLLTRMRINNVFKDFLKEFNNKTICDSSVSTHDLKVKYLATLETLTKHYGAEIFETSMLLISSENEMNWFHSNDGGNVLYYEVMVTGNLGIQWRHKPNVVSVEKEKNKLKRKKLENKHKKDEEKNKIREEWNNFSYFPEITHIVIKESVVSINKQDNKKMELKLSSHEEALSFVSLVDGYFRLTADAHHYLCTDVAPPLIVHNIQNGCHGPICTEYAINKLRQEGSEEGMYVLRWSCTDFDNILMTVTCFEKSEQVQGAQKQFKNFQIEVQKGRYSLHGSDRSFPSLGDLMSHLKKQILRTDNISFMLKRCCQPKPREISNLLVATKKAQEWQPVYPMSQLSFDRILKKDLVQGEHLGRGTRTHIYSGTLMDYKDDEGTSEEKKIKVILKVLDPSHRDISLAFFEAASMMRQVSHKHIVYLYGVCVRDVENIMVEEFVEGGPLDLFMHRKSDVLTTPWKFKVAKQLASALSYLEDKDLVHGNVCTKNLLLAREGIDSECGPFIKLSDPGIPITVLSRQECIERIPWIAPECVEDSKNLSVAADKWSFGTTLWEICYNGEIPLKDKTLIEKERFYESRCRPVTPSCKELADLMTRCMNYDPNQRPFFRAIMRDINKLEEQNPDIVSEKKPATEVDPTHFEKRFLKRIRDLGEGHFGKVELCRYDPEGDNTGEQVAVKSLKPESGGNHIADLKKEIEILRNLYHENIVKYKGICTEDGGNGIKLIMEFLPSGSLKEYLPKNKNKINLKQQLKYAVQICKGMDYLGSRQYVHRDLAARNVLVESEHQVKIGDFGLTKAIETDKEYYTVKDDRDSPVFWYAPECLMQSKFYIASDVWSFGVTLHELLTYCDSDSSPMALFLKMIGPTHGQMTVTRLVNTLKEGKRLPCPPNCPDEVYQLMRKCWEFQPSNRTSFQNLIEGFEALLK

Human JAK2 [2] = target: T2, Human JAK2 (Homo sapiens (Human), UniProt O60674); test: In vitro kinase inhibition test, JAK2 (33P-ATP filter scintillation); conditions: compound at 1 uM; read-out: JAK2 kinase-phosphorylation inhibitory level (% inhibition)
T2 sequence (O60674 whole entry): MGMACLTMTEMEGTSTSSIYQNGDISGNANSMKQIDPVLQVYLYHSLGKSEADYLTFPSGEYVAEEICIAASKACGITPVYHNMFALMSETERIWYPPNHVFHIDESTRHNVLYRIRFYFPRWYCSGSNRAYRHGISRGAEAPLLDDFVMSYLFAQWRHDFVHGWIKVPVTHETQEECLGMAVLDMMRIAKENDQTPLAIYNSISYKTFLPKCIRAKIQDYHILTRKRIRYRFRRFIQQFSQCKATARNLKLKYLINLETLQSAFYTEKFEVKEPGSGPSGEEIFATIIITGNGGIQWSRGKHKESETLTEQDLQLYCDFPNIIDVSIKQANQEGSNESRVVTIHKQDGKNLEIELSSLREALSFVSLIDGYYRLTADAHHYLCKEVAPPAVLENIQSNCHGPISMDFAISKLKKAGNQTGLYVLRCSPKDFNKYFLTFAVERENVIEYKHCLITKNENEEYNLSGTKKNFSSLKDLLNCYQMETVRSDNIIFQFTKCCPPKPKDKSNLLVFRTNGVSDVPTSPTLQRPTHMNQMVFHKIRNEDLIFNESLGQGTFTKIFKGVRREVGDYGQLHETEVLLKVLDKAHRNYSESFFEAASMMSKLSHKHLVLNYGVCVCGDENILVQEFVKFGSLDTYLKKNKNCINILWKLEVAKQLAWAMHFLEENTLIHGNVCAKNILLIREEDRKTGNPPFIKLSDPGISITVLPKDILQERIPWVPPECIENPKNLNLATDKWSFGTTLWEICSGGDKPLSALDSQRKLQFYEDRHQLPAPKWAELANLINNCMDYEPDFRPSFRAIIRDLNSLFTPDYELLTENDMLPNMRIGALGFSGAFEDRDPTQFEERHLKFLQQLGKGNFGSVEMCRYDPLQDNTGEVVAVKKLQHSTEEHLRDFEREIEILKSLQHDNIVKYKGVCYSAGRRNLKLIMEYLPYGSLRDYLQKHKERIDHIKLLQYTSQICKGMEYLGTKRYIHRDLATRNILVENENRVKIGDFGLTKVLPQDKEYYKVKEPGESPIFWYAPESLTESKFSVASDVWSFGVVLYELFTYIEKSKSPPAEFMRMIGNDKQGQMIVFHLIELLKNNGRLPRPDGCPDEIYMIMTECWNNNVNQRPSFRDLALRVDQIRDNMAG

Human JAK3 [3] = target: T3, Human JAK3 (Homo sapiens (Human), UniProt P52333); test: In vitro kinase inhibition test, JAK3 (33P-ATP filter scintillation); conditions: compound at 1 uM; read-out: JAK3 kinase-phosphorylation inhibitory level (% inhibition)
T3 sequence (P52333 whole entry): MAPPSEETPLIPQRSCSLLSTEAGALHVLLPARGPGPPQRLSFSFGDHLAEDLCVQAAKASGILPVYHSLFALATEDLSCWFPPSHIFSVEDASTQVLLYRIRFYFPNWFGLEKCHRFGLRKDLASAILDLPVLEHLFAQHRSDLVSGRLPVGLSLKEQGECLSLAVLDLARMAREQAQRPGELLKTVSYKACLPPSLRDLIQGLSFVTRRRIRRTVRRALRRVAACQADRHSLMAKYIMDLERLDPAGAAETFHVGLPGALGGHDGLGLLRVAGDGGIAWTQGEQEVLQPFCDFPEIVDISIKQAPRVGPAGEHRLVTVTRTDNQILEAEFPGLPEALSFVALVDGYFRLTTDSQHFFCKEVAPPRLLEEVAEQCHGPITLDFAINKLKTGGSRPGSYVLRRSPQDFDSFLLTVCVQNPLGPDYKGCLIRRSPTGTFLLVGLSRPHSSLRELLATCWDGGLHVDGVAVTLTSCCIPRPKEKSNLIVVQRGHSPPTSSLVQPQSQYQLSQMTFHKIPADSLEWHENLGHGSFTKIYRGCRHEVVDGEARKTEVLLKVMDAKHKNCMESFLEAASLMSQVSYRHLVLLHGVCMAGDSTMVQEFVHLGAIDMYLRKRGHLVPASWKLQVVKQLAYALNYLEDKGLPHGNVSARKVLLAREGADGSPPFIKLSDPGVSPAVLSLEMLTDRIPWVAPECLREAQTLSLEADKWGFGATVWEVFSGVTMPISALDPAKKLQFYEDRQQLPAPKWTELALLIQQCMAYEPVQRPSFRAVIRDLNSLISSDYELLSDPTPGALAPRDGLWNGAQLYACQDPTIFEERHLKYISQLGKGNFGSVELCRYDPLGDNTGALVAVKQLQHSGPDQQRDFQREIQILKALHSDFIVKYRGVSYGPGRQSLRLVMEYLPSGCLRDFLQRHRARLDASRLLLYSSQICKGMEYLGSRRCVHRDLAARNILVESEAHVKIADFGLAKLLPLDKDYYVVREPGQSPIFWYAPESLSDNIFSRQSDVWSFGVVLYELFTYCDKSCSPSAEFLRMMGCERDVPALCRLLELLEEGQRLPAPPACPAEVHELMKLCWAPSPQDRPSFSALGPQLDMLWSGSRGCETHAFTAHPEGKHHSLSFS

Human TYK2 [4] = target: T4, Human TYK2 (Homo sapiens (Human), UniProt P29597); test: In vitro kinase inhibition test, TYK2 (33P-ATP filter scintillation); conditions: compound at 1 uM; read-out: TYK2 kinase-phosphorylation inhibitory level (% inhibition)
T4 sequence (P29597 whole entry): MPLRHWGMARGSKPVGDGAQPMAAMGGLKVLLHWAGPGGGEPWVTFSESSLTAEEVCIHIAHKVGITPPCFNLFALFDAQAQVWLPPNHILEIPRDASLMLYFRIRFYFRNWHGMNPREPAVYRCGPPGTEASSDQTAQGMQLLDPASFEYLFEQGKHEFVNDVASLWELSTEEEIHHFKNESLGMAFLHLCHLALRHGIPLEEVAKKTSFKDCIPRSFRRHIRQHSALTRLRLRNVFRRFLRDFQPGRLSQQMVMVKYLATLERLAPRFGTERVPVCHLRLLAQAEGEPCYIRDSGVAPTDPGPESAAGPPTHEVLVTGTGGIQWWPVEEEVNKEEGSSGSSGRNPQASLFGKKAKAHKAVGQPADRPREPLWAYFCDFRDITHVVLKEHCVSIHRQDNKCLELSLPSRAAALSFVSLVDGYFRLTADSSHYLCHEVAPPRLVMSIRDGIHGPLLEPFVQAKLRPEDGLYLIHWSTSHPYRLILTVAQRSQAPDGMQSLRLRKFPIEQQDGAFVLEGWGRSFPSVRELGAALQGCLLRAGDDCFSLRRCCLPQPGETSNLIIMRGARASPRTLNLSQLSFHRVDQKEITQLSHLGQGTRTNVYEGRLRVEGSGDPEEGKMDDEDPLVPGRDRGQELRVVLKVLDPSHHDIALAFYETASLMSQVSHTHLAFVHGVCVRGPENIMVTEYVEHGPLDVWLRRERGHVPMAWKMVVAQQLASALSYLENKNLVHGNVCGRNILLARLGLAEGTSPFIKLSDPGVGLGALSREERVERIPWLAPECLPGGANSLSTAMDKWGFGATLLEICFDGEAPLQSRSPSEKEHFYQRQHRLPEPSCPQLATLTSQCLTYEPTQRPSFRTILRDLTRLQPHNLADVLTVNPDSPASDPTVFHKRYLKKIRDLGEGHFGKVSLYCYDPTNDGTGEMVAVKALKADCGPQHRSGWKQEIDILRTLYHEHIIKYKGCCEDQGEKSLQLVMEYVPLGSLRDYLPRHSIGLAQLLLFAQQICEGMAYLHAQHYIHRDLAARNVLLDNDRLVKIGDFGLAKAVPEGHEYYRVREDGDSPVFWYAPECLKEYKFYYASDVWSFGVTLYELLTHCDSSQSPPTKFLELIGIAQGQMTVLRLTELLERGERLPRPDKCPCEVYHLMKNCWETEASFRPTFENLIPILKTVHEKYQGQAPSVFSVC

Human JAK1 [5] = target: T1, Human JAK1; test: In vitro kinase inhibition test, JAK1 (33P-ATP filter scintillation)
Human JAK2 [6] = target: T2, Human JAK2; test: In vitro kinase inhibition test, JAK2 (33P-ATP filter scintillation)
Human JAK3 [7] = target: T3, Human JAK3; test: In vitro kinase inhibition test, JAK3 (33P-ATP filter scintillation)
Human TYK2 [8] = target: T4, Human TYK2; test: In vitro kinase inhibition test, TYK2 (33P-ATP filter scintillation)

Structure (SMILES)	inhibition at 1 µM (Human JAK1 [1])	inhibition at 1 µM (Human JAK2 [2])	inhibition at 1 µM (Human JAK3 [3])	inhibition at 1 µM (Human TYK2 [4])	IC50 (Human JAK1 [5])	IC50 (Human JAK2 [6])	IC50 (Human JAK3 [7])	IC50 (Human TYK2 [8])	inhibition at 1 µM (Human TYK2 [8]; read-out: TYK2 kinase-phosphorylation inhibitory level (% inhibition))
CN(c1ncnc2[nH]ccc12)[C@H]1CN(C(=O)c2ccc(C#N)cc2)CC12CC2 [Example 16, (R)-4-(7-(methyl(7H-pyrrolo[2,3-d]pyrimidin-4-yl)amino)-5-azaspiro[2.4]heptane-5-carbonyl)benzonitrile]	79%	13%	15%	23%					
CN(c1ncnc2[nH]ccc12)C1CN(C(=S)CC#N)CC12CC2 (centres unmarked) [Example 60, 3-(7-(methyl(7H-pyrrolo[2,3-d]pyrimidin-4-yl)amino)-5-azaspiro[2.4]heptan-5-yl)-3-thioxopropanenitrile]	96%	-3%	-14%	0%					
CN(c1ncnc2[nH]ccc12)[C@@H]1CN(C(=O)CN=[N+]=[N-])CC12CC2 [Example 65, (S)-2-azido-1-(7-(methyl(7H-pyrrolo[2,3-d]pyrimidin-4-yl)amino)-5-azaspiro[2.4]heptan-5-yl)ethan-1-one]	41%	12%	-16%	14%					
CN(c1ncnc2[nH]ccc12)[C@@H]1CN(C(=O)c2ccc(C#N)cc2)CC12CC2 [Example 68, (S)-4-(7-(methyl(7H-pyrrolo[2,3-d]pyrimidin-4-yl)amino)-5-azaspiro[2.4]heptane-5-carbonyl)benzonitrile]	14%	-5%	-7%	2%					
CN(c1ncnc2[nH]ccc12)C1CN(C(=O)Cn2ccnc2)CC12CC2 (centres unmarked) [Example 59, 2-(1H-imidazol-1-yl)-1-(7-(methyl(7H-pyrrolo[2,3-d]pyrimidin-4-yl)amino)-5-azaspiro[2.4]heptan-5-yl)ethan-1-one]	72%	-17%	20%	-8%					
CC(=O)N1CCC(C(=O)N2C[C@H](N(C)c3ncnc4[nH]ccc34)C3(CC3)C2)CC1 [Example 10, (R)-1-(4-(7-(methyl(7H-pyrrolo[2,3-d]pyrimidin-4-yl)amino)-5-azaspiro[2.4]heptane-5-carbonyl)piperidin-1-yl)ethan-1-one]	88%	2%	23%	52%					
CCS(=O)(=O)N1CC(N(C)c2ncnc3[nH]ccc23)C2(CC2)C1 (racemic) [Example 62, N-(5-(ethylsulfonyl)-5-azaspiro[2.4]heptan-7-yl)-N-methyl-7H-pyrrolo[2,3-d]pyrimidin-4-amine]	95%	59%	59%	67%	2.8 nM	422 nM	> 1000 nM	198 nM	
C[C@@H]1CCN(C(=O)CC#N)C[C@@H]1N(C)c1ncnc2[nH]ccc12 [tofacitinib citrate, reference compound]									100%
CN(c1ncnc2[nH]ccc12)[C@H]1CN(C(=O)c2ccccc2C(F)(F)F)CC12CC2 [Example 17, (R)-(7-(methyl(7H-pyrrolo[2,3-d]pyrimidin-4-yl)amino)-5-azaspiro[2.4]heptan-5-yl)(2-(trifluoromethyl)phenyl)methanone]	65%	-14%	-1%	39%					
CNC(=O)CC(=O)N1C[C@H](N(C)c2ncnc3[nH]ccc23)C2(CC2)C1 [Example 8, (R)-N-methyl-3-(7-(methyl(7H-pyrrolo[2,3-d]pyrimidin-4-yl)amino)-5-azaspiro[2.4]heptan-5-yl)-3-oxopropanamide]	61%	-7%	3%	11%					
Cc1ccc(NC(=O)N2C[C@H](N(C)c3ncnc4[nH]ccc34)C3(CC3)C2)cc1Cl [Example 29, (R)-N-(3-chloro-4-methylphenyl)-7-(methyl(7H-pyrrolo[2,3-d]pyrimidin-4-yl)amino)-5-azaspiro[2.4]heptane-5-carboxamide]	92%	19%	39%	43%					
CN(c1ncnc2[nH]ccc12)[C@@H]1CN(C(=O)CC#N)CC12CC2 [Example 66, (S)-3-(7-(methyl(7H-pyrrolo[2,3-d]pyrimidin-4-yl)amino)-5-azaspiro[2.4]heptan-5-yl)-3-oxopropanenitrile]	65%	-15%	17%	-16%	787 nM	> 1000 nM	> 1000 nM	> 1000 nM	
CN(c1ncnc2[nH]ccc12)[C@H]1CN(S(=O)(=O)c2cccc(C#N)c2)CC12CC2 [Example 41, (R)-3-((7-(methyl(7H-pyrrolo[2,3-d]pyrimidin-4-yl)amino)-5-azaspiro[2.4]heptan-5-yl)sulfonyl)benzonitrile]	99%	99%	77%	97%	5.8 nM	58.6 nM	110 nM	24.7 nM	
CN(c1ncnc2[nH]ccc12)[C@H]1CN(S(=O)(=O)c2ccc(C#N)cc2)CC12CC2 [Example 42, (R)-4-((7-(methyl(7H-pyrrolo[2,3-d]pyrimidin-4-yl)amino)-5-azaspiro[2.4]heptan-5-yl)sulfonyl)benzonitrile]	97%	49%	33%	68%					
CCCS(=O)(=O)N1C[C@H](N(C)c2ncnc3[nH]ccc23)C2(CC2)C1 [Example 35, (R)-N-methyl-N-(5-(propylsulfonyl)-5-azaspiro[2.4]heptan-7-yl)-7H-pyrrolo[2,3-d]pyrimidin-4-amine]	99%	78%	77%	89%					
CN(c1ncnc2[nH]ccc12)[C@H]1CN(C(=O)c2ccco2)CC12CC2 [Example 11, (R)-furan-2-yl(7-(methyl(7H-pyrrolo[2,3-d]pyrimidin-4-yl)amino)-5-azaspiro[2.4]heptan-5-yl)methanone]	93%	10%	15%	61%					
CC(=O)NCC(=O)N1C[C@H](N(C)c2ncnc3[nH]ccc23)C2(CC2)C1 [Example 7, (R)-N-(2-(7-(methyl(7H-pyrrolo[2,3-d]pyrimidin-4-yl)amino)-5-azaspiro[2.4]heptan-5-yl)-2-oxoethyl)acetamide]	70%	-17%	8%	8%					
CN(c1ncnc2[nH]ccc12)[C@H]1CN(C(=O)C2CC2)CC12CC2 [Example 9, (R)-cyclopropyl(7-(methyl(7H-pyrrolo[2,3-d]pyrimidin-4-yl)amino)-5-azaspiro[2.4]heptan-5-yl)methanone]	90%	10%	13%	70%					
CN(c1ncnc2[nH]ccc12)C1CN(C(=O)CC#N)CC12CC2 (racemic) [Example 55, 3-(7-(methyl(7H-pyrrolo[2,3-d]pyrimidin-4-yl)amino)-5-azaspiro[2.4]heptan-5-yl)-3-oxopropanenitrile]	95%	53%	30%	58%	29.3 nM	148 nM	694 nM	40.4 nM	
CN(c1ncnc2[nH]ccc12)[C@@H]1CN(C(=S)CC#N)CC12CC2 [Example 69, (S)-3-(7-(methyl(7H-pyrrolo[2,3-d]pyrimidin-4-yl)amino)-5-azaspiro[2.4]heptan-5-yl)-3-thioxopropanenitrile]	58%	6%	9%	36%					
CC(C)CC(=O)N1C[C@H](N(C)c2ncnc3[nH]ccc23)C2(CC2)C1 [Example 6, (R)-3-methyl-1-(7-(methyl(7H-pyrrolo[2,3-d]pyrimidin-4-yl)amino)-5-azaspiro[2.4]heptan-5-yl)butan-1-one]	90%	21%	18%	46%					
Cc1cccc(S(=O)(=O)N2C[C@H](N(C)c3ncnc4[nH]ccc34)C3(CC3)C2)c1 [Example 46, (R)-N-methyl-N-(5-(m-tolylsulfonyl)-5-azaspiro[2.4]heptan-7-yl)-7H-pyrrolo[2,3-d]pyrimidin-4-amine]	98%	81%	62%	92%					
